Data taken from ChEMBL document CHEMBL1201862, “PubChem BioAssay data set” (2004).
Calls of active or inactive are those of the source.

Assays:
[1] = molecular target: T1, Corticotropin-releasing factor receptor 2/Corticotropin-releasing factor-binding protein (Homo sapiens, UniProt P24387+Q13324); experiment: activators of CRF receptor 2 with binding protein – uHTS hits, confirmation (AID 602473); assay type: functional; conditions: read-out: EC50_Mean
T1 sequence (Q13324 whole entry): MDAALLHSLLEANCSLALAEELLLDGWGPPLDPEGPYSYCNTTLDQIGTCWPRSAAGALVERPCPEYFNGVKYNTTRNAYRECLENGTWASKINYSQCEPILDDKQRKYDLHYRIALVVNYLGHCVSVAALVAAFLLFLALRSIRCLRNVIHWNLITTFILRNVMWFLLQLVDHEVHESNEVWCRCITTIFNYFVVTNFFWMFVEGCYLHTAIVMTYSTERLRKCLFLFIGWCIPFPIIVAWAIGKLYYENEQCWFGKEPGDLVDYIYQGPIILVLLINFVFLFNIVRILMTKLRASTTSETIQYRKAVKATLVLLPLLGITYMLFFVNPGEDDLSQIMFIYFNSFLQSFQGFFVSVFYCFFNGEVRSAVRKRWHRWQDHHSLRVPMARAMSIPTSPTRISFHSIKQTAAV
T1 sequence (P24387 whole entry): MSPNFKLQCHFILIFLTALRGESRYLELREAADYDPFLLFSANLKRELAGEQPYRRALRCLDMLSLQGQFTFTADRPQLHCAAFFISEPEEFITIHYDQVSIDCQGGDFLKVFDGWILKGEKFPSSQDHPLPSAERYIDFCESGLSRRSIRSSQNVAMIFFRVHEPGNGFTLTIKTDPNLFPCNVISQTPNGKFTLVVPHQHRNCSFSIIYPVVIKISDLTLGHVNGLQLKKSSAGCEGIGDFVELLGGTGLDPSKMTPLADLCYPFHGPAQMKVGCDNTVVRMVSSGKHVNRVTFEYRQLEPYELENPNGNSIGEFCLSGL

[2] = molecular target: T1, Corticotropin-releasing factor receptor 2/Corticotropin-releasing factor-binding protein; experiment: Dose Response confirmation of uHTS hits for small molecule antagonists of the CRF-binding protein and CRF-R2 receptor complex.; assay type: functional; conditions: read-out: IC50_Mean
[3] = CRF-BP/CRF-R2 complex antagonists, dose response, cell-based, uHTS hits, 384-well (AID 651639); assay type: functional, Homo sapiens; conditions: read-out: IC50_Mean
Bcl-2-like protein 10 = molecular target: T2, Bcl-2-like protein 10 (Homo sapiens, UniProt Q9HD36); experiment: displacers of TR3 peptide from Bcl-B, primary screen, selectivity assay for Bfl-1 inhibitor project, biochemical, fluorescence polarization, FITC-TR3 peptide (AID 748);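 also: fluorescence polarization from a fluorescein-labelled TR3 peptide binding purified Bcl-B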
T2 sequence (Q9HD36 whole entry): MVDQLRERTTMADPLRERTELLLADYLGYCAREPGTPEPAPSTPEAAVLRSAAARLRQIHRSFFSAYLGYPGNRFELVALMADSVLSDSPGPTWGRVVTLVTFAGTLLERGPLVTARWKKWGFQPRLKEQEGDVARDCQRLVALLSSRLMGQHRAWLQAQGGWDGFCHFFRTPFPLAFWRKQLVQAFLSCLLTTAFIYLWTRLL

[4] = molecular target: Induced myeloid leukemia cell differentiation protein Mcl-1 (Homo sapiens, UniProt Q07820); assay type: functional
Induced myeloid leukemia cell differentiation protein Mcl-1, sequence (Q07820 whole entry): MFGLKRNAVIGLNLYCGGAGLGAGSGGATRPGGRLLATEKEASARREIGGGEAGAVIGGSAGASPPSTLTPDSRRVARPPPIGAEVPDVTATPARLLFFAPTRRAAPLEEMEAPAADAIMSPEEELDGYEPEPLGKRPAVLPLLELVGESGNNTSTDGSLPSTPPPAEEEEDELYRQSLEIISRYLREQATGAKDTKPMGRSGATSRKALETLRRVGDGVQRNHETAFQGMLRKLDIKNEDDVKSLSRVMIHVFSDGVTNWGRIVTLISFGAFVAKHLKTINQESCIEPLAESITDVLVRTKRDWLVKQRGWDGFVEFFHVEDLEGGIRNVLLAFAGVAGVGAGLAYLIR

Prothrombin = Prothrombin (Homo sapiens, UniProt P00734); experiment: Thrombin 1536 HTS Dose Response Confirmation. [Related pubchem assays: 1046 (Thrombin 1536 HTS; hits were confirmed in this assay)]; assay type: functional
HEK293 [5] = experiment: HEK cell cytotoxicity by LDH release, dose response, cytotoxicity control for IDE activator project, fluorescence, HEK cells (AID 588440); assay type: functional, cell-based; conditions: Homo sapiens;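 also: cytotoxicity by LDH release measuring loss of membrane integrity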
HEK293 [6] = experiment: optical interference in Abeta FP readout, dose response, artefact control for IDE activator project, biochemical, fluorescence polarization (AID 588442); assay type: functional, cell-based; conditions: Homo sapiens
Insulin-degrading enzyme [7] = molecular target: T3, Insulin-degrading enzyme (Homo sapiens, UniProt P14735); experiment: activators of recombinant IDE enzyme, dose response, counter-screen for IDE activator project, biochemical, fluorescence polarization (AID 588681)
T3 sequence (P14735 whole entry): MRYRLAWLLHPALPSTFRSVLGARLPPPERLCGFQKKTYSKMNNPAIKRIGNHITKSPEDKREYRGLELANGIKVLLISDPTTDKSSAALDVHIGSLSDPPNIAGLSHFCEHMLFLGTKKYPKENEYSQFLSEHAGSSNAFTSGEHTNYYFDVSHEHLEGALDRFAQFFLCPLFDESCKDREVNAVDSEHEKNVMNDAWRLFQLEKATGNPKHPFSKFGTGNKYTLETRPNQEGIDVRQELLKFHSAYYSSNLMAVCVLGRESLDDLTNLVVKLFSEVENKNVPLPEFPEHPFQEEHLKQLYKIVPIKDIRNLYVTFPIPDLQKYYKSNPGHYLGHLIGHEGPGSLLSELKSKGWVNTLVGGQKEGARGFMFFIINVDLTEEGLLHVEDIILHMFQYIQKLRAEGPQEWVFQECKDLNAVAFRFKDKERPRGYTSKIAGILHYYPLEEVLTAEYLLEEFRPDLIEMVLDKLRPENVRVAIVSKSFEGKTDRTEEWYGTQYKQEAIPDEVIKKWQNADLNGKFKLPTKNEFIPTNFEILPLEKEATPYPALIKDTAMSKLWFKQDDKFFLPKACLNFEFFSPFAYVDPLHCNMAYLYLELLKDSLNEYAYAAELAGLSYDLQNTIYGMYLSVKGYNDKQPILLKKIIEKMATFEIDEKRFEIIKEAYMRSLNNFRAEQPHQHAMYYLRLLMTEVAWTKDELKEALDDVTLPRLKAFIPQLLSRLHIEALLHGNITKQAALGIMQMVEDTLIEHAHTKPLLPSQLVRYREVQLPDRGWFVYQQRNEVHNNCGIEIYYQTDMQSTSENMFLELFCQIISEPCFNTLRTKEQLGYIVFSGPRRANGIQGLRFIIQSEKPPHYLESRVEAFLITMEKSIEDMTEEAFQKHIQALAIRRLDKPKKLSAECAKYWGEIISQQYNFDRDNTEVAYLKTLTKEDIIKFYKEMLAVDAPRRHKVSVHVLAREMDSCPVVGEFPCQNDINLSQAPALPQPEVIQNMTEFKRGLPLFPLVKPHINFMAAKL

Insulin-degrading enzyme [8] = molecular target: T3, Insulin-degrading enzyme; experiment: activators of endogenous IDE in HEK cells, dose response, cell-based, fluorescence polarization (AID 588439); assay type: functional
[9] = molecular target: T4, DNA repair protein RAD52 homolog (Homo sapiens, UniProt P43351); assay type: functional, biochemical
T4 sequence (P43351 whole entry): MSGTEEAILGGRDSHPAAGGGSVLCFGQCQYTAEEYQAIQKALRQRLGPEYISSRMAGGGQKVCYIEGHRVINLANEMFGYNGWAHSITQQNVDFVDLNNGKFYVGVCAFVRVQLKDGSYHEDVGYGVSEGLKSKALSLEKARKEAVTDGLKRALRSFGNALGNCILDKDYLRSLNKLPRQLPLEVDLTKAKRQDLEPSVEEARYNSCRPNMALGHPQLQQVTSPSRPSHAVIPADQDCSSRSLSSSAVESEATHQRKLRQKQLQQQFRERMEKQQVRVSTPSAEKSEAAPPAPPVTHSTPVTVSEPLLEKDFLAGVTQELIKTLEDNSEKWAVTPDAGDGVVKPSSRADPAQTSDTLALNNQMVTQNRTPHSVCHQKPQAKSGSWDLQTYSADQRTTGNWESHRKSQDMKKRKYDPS

[10] = molecular target: T5, Ubiquitin-conjugating enzyme E2 N (Homo sapiens, UniProt P61088); assay type: functional;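 also: Dose-response confirmation in a TR-FRET assay detecting UBC13-driven polyubiquitin chain formation, inhibition measured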
T5 sequence (P61088 whole entry): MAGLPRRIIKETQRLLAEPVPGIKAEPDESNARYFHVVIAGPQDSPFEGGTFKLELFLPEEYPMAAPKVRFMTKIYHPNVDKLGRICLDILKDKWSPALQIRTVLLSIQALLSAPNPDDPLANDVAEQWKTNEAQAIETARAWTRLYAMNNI

cells = assay type: functional
[11] = THP-1 cell cytotoxicity, dose response, cytotoxicity control for non-replicating M. tuberculosis project (AID 489025); assay type: functional
[12] = Vero E6 cell cytotoxicity, dose response, cytotoxicity control for non-replicating M. tuberculosis project, secondary assay (AID 492998); assay type: functional, VeroE6; conditions: Vero C1008
INS1 = experiment: beta cell apoptosis inhibitors, cytokine rescue, dose response, luminescence, retest (AID 449756); assay type: functional, cell-based; conditions: Rattus norvegicus;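 also: cell death triggered by IL-1 beta plus TNF-alpha plus IFN-gamma mixture; protective hits raise ATP signal compared with cytokine alone wells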
[13] = molecular target: Eukaryotic translation initiation factor 4E (Mus musculus, UniProt P63073); experiment: eIF4E–eIF4G protein interaction inhibitors, dose response, biochemical, TR-FRET (AID 855); assay type: functional;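 also: potency for disrupting eIF4E binding to eIF4GI seen as loss of FRET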
Eukaryotic translation initiation factor 4E, sequence (P63073 whole entry): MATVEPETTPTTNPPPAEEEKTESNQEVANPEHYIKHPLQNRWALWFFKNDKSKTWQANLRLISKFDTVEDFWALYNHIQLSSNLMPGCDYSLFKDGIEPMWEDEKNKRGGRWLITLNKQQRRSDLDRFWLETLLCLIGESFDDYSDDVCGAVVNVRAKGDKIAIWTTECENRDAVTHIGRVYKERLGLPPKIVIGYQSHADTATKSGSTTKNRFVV

[14] = non-specific cell cytotoxicity, dose response, cytotoxicity control for PAX8 inhibitor project, plate reader, dry powder samples (AID 743021); assay type: functional, cell-based
Paired box protein Pax-8 = Paired box protein Pax-8 (Homo sapiens, UniProt Q06710); experiment: inhibitors of PAX8-driven TPO luciferase reporter, dose response, RMG-I cells, cherry-pick (AID 687027); assay type: functional, cell-based;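 also: luciferase reporter driven by Pax8 target thyroperoxidase promoter measured by SteadyGlo luminescence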
Paired box protein Pax-8, sequence (Q06710 whole entry): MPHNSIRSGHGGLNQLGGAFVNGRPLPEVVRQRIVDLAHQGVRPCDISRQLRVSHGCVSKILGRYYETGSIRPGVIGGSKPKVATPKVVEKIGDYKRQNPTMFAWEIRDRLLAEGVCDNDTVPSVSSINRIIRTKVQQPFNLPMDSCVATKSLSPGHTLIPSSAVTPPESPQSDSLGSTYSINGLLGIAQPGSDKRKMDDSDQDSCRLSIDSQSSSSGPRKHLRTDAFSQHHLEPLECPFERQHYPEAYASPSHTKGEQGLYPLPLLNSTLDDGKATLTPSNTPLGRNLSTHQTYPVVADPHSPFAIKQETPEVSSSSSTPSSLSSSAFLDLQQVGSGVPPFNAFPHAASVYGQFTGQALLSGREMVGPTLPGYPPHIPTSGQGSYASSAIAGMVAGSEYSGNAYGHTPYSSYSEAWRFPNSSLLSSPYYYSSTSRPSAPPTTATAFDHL

[15] = NIH:OVCAR-3 ovarian cancer cell cytotoxicity, dose response, PAX8 inhibitor project, plate reader, dry powder samples (AID 743044); assay type: functional, cell-based
[16] = inhibitors of clade B AD8 Env fusion, dose response, cell-based, cherry-pick (AID 652062); assay type: functional;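 also: luciferase signal from cell-cell fusion driven by HIV-1 clade B AD8 Env; potency is for inhibitors of fusion seen as a drop in luminescence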
[17] = ZM109 Env clade C HIV-1 fusion inhibitors, dose response, HeLa effector, CEM target cells, luciferase, cherry-pick (AID 652058); assay type: functional, cell-based
[18] = inhibitors of HIV Env-driven cell fusion, dose response, cherry-pick (AID 652057); assay type: functional, cell-based

CN(C)c1ccc(C=C2C(=O)OC(C)(C)OC2=O)cc1
EC50 [1]: > 53 µM (inactive)
IC50 [2]: 5.16 µM (active)
IC50 [3]: 7.91 µM (active)

Cc1ccc(OCC(=O)Nc2ccc(N3CCCC3)cc2)cc1C
IC50 (Bcl-2-like protein 10): 40.8 µM (active)
IC50 [4]: 6.68 µM (active)

O=C(COC(=O)CCC(=O)c1cccs1)Nc1ccccc1[N+](=O)[O-]
IC50 (Prothrombin): 6.93 µM (active)

Nc1cc(N)nc(SCCOc2ccccc2)n1
IC50 (HEK293 [5]): > 89.2 µM (inactive)
EC50 (HEK293 [6]): > 55.9 µM (inactive)
EC50 (Insulin-degrading enzyme [7]): > 54.7 µM (inactive)
EC50 (Insulin-degrading enzyme [8]): > 54.7 µM (inactive)

COc1ccc(N2C(=O)/C(=C/Nc3ccccc3)c3ccccc3C2=O)cc1
IC50 (Prothrombin): > 50 µM (not active)

Cn1c(C(C#N)C2=C(Cl)C(=O)N(c3ccccc3)C2=O)nc2ccccc21 (stereo unspecified)
IC50 (Bcl-2-like protein 10): 16.5 µM (active)

CCS(=O)(=O)NCc1ccc2c(c1)cc(C)n2C
IC50 (Bcl-2-like protein 10): > 50 µM (inactive)

ClCCN1CCN(c2ccnc3cc(Cl)ccc23)CC1
AC50 [9]: 17.2 µM (active)
IC50 [10]: > 20 µM (inactive)

Cc1cc(C)nc(-n2nc(C)cc2Nc2ccccc2)n1
IC50 (Prothrombin): > 50 µM (not active)
IC50 (cells): 0.5 µM (active)
CC50 [11]: > 40 µM (active)
CC50 [12]: > 20 µM (active)
AC50 (INS1): 2.91 µM (active)

CC(NC(=O)CN(C1CCCCC1)S(C)(=O)=O)c1ccccc1 (stereo unspecified)
IC50 (Prothrombin): > 50 µM (not active)

O=c1[nH]nc(SCc2nnc(-c3ccc([N+](=O)[O-])cc3)o2)n1C1CCCCC1
IC50 (Prothrombin): 4.04 µM (active)

CC(=O)Nc1ccc(Nc2nc3ccccc3nc2NS(=O)(=O)c2ccc(Cl)c([N+](=O)[O-])c2)cc1
EC50 [1]: > 53 µM (inactive)
IC50 [2]: 6.14 µM (active)
IC50 [3]: 10.2 µM (active)

CCCCC[C@@H]1C=C(C(=O)O)[C@H](c2cccc(C)c2)N1S(=O)(=O)c1ccc(C)cc1
EC50 [1]: 40.7 µM (active)
IC50 [2]: 36.6 µM (active)
IC50 [3]: > 20 µM (inactive)

CN(c1ccccc1)S(=O)(=O)c1cccc(NC(=O)COc2cccc([N+](=O)[O-])c2)c1
IC50 (HEK293 [5]): > 89.2 µM (inactive)
EC50 [1]: > 53 µM (inactive)
IC50 [2]: > 23.6 µM (inactive)
EC50 (HEK293 [6]): > 55.9 µM (inactive)
IC50 [3]: > 20 µM (inactive)
EC50 (Insulin-degrading enzyme [7]): > 54.7 µM (inactive)
EC50 (Insulin-degrading enzyme [8]): > 54.7 µM (inactive)

COc1ccc(OC)c(C(=O)COC(=O)CN2C(=O)NC3(CCCCC3C)C2=O)c1 (stereo unspecified)
IC50 (HEK293 [5]): > 89.2 µM (inactive)
EC50 (HEK293 [6]): > 55.9 µM (inactive)
EC50 (Insulin-degrading enzyme [7]): > 54.7 µM (inactive)
EC50 (Insulin-degrading enzyme [8]): > 54.7 µM (inactive)

CO/N=C/C(C#N)c1ncc(C(F)(F)F)cc1Cl (stereo unspecified)
IC50 [13]: > 64 µM (inactive)
EC50 [1]: 5.81 µM (active)
IC50 [2]: 4.92 µM (active)
IC50 [3]: 6.73 µM (active)

C[C@@H]1CN([C@H](C)CO)C(=O)c2cc(NC(=O)Nc3ccc(C(F)(F)F)cc3)ccc2O[C@@H](C)CCCCO[C@@H]1CN(C)C(=O)NC1CCCCC1
AC50 [14]: 2.66 µM (active)
AC50 (Paired box protein Pax-8): 4.46 µM (active)
AC50 [15]: 35.7 µM (active)

C[C@@H]1CN([C@@H](C)CO)C(=O)Cc2cc(NS(=O)(=O)c3cccs3)ccc2O[C@H]1CN(C)Cc1ccc(C(F)(F)F)cc1
AC50 [16]: 25.8 µM (active)
AC50 (Paired box protein Pax-8): 5.33 µM (active)
AC50 [17]: 1.39 µM (active)
AC50 [15]: 32.8 µM (active)
AC50 [18]: 10.1 µM (active)

Cc1ccc(S(=O)(=O)Nc2ccc3c(c2)CC(=O)N([C@H](C)CO)C[C@H](C)[C@H](CN(C)S(=O)(=O)c2ccc(F)cc2)O3)cc1
AC50 [16]: 4.36 µM (active)
AC50 (Paired box protein Pax-8): 25.3 µM (active)
AC50 [17]: 5.04 µM (active)
AC50 [15]: 59.2 µM (active)
AC50 [18]: 5.23 µM (active)
